Assay results from US10294202B2, “Pyrrolidinones as herbicides” (FMC Corporation, priority 2013, dated 2019).

Key:
corn [1] = assay: Test A pre-/postemergence herbicide test; assay type: in vivo, Zea mays
Procedure, shortened: (§1)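 Both application timings used compounds in a non-phytotoxic solvent plus surfactant. Pre-emergence: soil sprayed directly after seeding into loam/sand. Post-emergence: foliage of 2–10 cm seedlings (1–2 leaves) sprayed. Injury rated ~10 days later, 0–100.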

soybean = assay: Test C pre-/postemergence herbicide test; assay type: in vivo, Glycine max; details: Preemergence; for Plant response rating, Soybean: 125 g ai/ha; for Plant response rating (scale of 0 to 100), Soybean: 250 g ai/ha
Procedure, shortened: (§2)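 Herbicidal effect was judged by eye 13 to 15 days after treatment in the greenhouse, using a 0–100 scale against controls. Chemicals in a non-phytotoxic solvent with surfactant were sprayed onto planted loam/sand soil or onto plants 2 to 18 cm tall in a peat-based growing medium.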

ryegrass, Italian = assay: Test C pre-/postemergence herbicide test; assay type: in vivo, Lolium multiflorum; details: Preemergence; for Plant response rating, Ryegrass, Italian: 125 g ai/ha; for Plant response rating (scale of 0 to 100), Ryegrass, Italian: 250 g ai/ha
Procedure, shortened: as §2

galium = assay: Test C pre-/postemergence herbicide test; assay type: in vivo, Galium aparine; details: Preemergence; for Plant response rating, Galium: 125 g ai/ha; for Plant response rating (scale of 0 to 100), Galium: 250 g ai/ha
Procedure, shortened: as §2

sedge, umbrella = assay: Test B flooded paddy test; assay type: in vivo, Cyperus difformis; details: Flood, scale of 0 to 100 where 0 is no effect and 100 is complete control
Procedure, shortened: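 Treatment was made at the 2-leaf stage by dosing the standing floodwater, kept 3 cm above soil level for the whole test. Greenhouse exposure lasted 13 to 15 days. Response is a visual percent rating relative to controls, where a dash indicates no test result.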

pigweed = assay: Test A pre-/postemergence herbicide test; assay type: in vivo, Amaranthus retroflexus
Procedure, shortened: as §1

corn [2] = assay: Test C pre-/postemergence herbicide test; assay type: in vivo, Zea mays; details: Preemergence; for Plant response rating, Corn: 125 g ai/ha; for Plant response rating (scale of 0 to 100), Corn: 250 g ai/ha
Procedure, shortened: as §2

foxtail, giant = assay: Test C pre-/postemergence herbicide test; assay type: in vivo, Setaria faberii; details: Preemergence; for Plant response rating, Foxtail, Giant: 125 g ai/ha; for Plant response rating (scale of 0 to 100), Foxtail, Giant: 250 g ai/ha
Procedure, shortened: as §2

ragweed = assay: Test C pre-/postemergence herbicide test; assay type: in vivo, Ambrosia elatior; details: Preemergence; for Plant response rating, Ragweed: 125 g ai/ha; for Plant response rating (scale of 0 to 100), Ragweed: 250 g ai/ha
Procedure, shortened: as §2

barnyardgrass = assay: Test A pre-/postemergence herbicide test; assay type: in vivo, Echinochloa crus-galli
Procedure, shortened: as §1

[3] = Postemergence, 125 g ai/ha, 0 to 100 scale, 0 is no effect, 100 is complete control
[4] = Postemergence, 500 g ai/ha, 0 to 100 scale (0 no effect, 100 complete control)
[5] = Preemergence, 125 g ai/ha, 0 to 100 scale where 0 is no effect and 100 is complete control
[6] = preemergence, 500 g ai/ha, 0 to 100 scale, 0 is no effect and 100 is complete control
[7] = 31 g ai/ha, scale 0 to 100, 0 is no effect and 100 is complete control
[8] = 62 g ai/ha, scale 0 to 100 (0 no effect, 100 complete control)
[9] = scale 0 to 100 (0 no effect, 100 complete control)
[10] = 125 g ai/ha, visual rating, 0 to 100 scale, 0 no effect, 100 complete control, approximately 10 days, preemergence
[11] = Postemergence, 1000 g ai/ha, 0 to 100 scale (0 no effect, 100 complete control)

O=C1NCC(c2ccc(C(F)(F)F)nc2)C1C(=O)Nc1ccccc1F (racemic) [Compound 262]
Plant response rating, Corn (corn [1]; [3]): 0
Plant response rating, Corn (corn [1]; [4]): 0
Plant response rating, Corn (corn [1]; [5]): 0
Plant response rating, Corn (corn [1]; [6]): 0
Soybean plant response rating (soybean; [7]): 0
Soybean plant response rating (soybean; [8]): 0
Plant response rating, Soybean (soybean; [9]): 0
Plant response rating (scale of 0 to 100), Soybean (soybean): 0
Ryegrass, Italian plant response rating (ryegrass, Italian; [7]): 0
Ryegrass, Italian plant response rating (ryegrass, Italian; [8]): 0
Plant response rating, Ryegrass, Italian (ryegrass, Italian; [9]): 0
Plant response rating (scale of 0 to 100), Ryegrass, Italian (ryegrass, Italian): 0
Galium plant response rating (galium; [7]): 0
Galium plant response rating (galium; [8]): 40
Plant response rating, Galium (galium; [9]): 60
Plant response rating (scale of 0 to 100), Galium (galium): 85
Plant response rating, Sedge, Umbrella (sedge, umbrella; 1000 g ai/ha): 0
Plant response rating, Pigweed (pigweed; [3]): 0
Plant response rating, Pigweed (pigweed; [4]): 0
Plant response rating, Pigweed (pigweed; [5]): 50
Plant response rating, Pigweed (pigweed; [6]): 70
Corn plant response rating (corn [2]; [7]): 0
Corn plant response rating (corn [2]; [8]): 0
Plant response rating, Corn (corn [2]; [9]): 10
Plant response rating (scale of 0 to 100), Corn (corn [2]): 10
Foxtail, Giant plant response rating (foxtail, giant; [7]): 20
Foxtail, Giant plant response rating (foxtail, giant; [8]): 70
Plant response rating, Foxtail, Giant (foxtail, giant; [9]): 95
Plant response rating (scale of 0 to 100), Foxtail, Giant (foxtail, giant): 95
Ragweed plant response rating (ragweed; [7]): 0
Ragweed plant response rating (ragweed; [8]): 20
Plant response rating, Ragweed (ragweed; [9]): 10
Plant response rating (scale of 0 to 100), Ragweed (ragweed): 75
Plant response rating, Barnyardgrass (barnyardgrass; [3]): 60
Plant response rating, Barnyardgrass (barnyardgrass; [4]): 70
Plant response rating, Barnyardgrass (barnyardgrass; [5]): 80
Plant response rating, Barnyardgrass (barnyardgrass; [6]): 90

O=C1NCC(c2ccc(C(F)(F)F)nc2)C1C(=O)Nc1cccc(F)c1F (racemic) [Compound 263]
Plant response rating, Corn (corn [1]; [3]): 40
Plant response rating, Corn (corn [1]; [4]): 60
Plant response rating, Corn (corn [1]; [5]): 0
Plant response rating, Corn (corn [1]; [6]): 70
Soybean plant response rating (soybean; [7]): 0
Soybean plant response rating (soybean; [8]): 0
Plant response rating, Soybean (soybean; [9]): 100
Plant response rating (scale of 0 to 100), Soybean (soybean): 0
Ryegrass, Italian plant response rating (ryegrass, Italian; [7]): 0
Ryegrass, Italian plant response rating (ryegrass, Italian; [8]): 0
Plant response rating, Ryegrass, Italian (ryegrass, Italian; [9]): 0
Plant response rating (scale of 0 to 100), Ryegrass, Italian (ryegrass, Italian): 35
Galium plant response rating (galium; [7]): 70
Galium plant response rating (galium; [8]): 85
Plant response rating, Galium (galium; [9]): 85
Plant response rating (scale of 0 to 100), Galium (galium): 90
Plant response rating, Sedge, Umbrella (sedge, umbrella; 1000 g ai/ha): 0
Plant response rating, Pigweed (pigweed; [4]): 70
Plant response rating, Pigweed (pigweed; [5]): 60
Plant response rating, Pigweed (pigweed; [6]): 100
Corn plant response rating (corn [2]; [7]): 0
Corn plant response rating (corn [2]; [8]): 0
Plant response rating, Corn (corn [2]; [9]): 0
Plant response rating (scale of 0 to 100), Corn (corn [2]): 10
Foxtail, Giant plant response rating (foxtail, giant; [7]): 65
Foxtail, Giant plant response rating (foxtail, giant; [8]): 95
Plant response rating, Foxtail, Giant (foxtail, giant; [9]): 98
Plant response rating (scale of 0 to 100), Foxtail, Giant (foxtail, giant): 98
Ragweed plant response rating (ragweed; [7]): 0
Ragweed plant response rating (ragweed; [8]): 90
Plant response rating, Ragweed (ragweed; [9]): 80
Plant response rating (scale of 0 to 100), Ragweed (ragweed): 100
Plant response rating, Barnyardgrass (barnyardgrass; [3]): 70
Plant response rating, Barnyardgrass (barnyardgrass; [4]): 80
Plant response rating, Barnyardgrass (barnyardgrass; [5]): 80
Plant response rating, Barnyardgrass (barnyardgrass; [6]): 90

O=C1NCC(c2ccc(C(F)(F)F)cc2)C1C(=O)Nc1ccccc1Cl (stereo not shown) [Compound 233]
Plant response rating, Corn (corn [1]; [3]): 20
Corn plant response rating (0 to 100 scale, 0 is no effect, 100 is complete control) (corn [1]; Postemergence, 500 g ai/ha): 20
Soybean plant response rating (soybean; [7]): 0
Soybean plant response rating (soybean; [8]): 0
Plant response rating, Soybean (soybean; [9]): 5
Plant response rating (scale of 0 to 100), Soybean (soybean): 0
Ryegrass, Italian plant response rating (ryegrass, Italian; [7]): 0
Ryegrass, Italian plant response rating (ryegrass, Italian; [8]): 0
Plant response rating, Ryegrass, Italian (ryegrass, Italian; [9]): 30
Plant response rating (scale of 0 to 100), Ryegrass, Italian (ryegrass, Italian): 40
Galium plant response rating (galium; [7]): 0
Galium plant response rating (galium; [8]): 80
Plant response rating, Galium (galium; [9]): 90
Plant response rating (scale of 0 to 100), Galium (galium): 90
Plant response rating, Sedge, Umbrella (sedge, umbrella; 500 g ai/ha): 0
Plant response rating, Pigweed (pigweed; [10]): 30
Plant response rating, Pigweed (pigweed; [3]): 0
Pigweed plant response rating (0 to 100 scale, 0 is no effect, 100 is complete control) (pigweed; Postemergence, 500 g ai/ha): 20
Plant response rating, Pigweed (pigweed; [6]): 30
Corn plant response rating (corn [2]; [7]): 0
Corn plant response rating (corn [2]; [8]): 0
Plant response rating, Corn (corn [2]; [9]): 10
Plant response rating (scale of 0 to 100), Corn (corn [2]): 35
Foxtail, Giant plant response rating (foxtail, giant; [7]): 85
Foxtail, Giant plant response rating (foxtail, giant; [8]): 90
Plant response rating, Foxtail, Giant (foxtail, giant; [9]): 90
Plant response rating (scale of 0 to 100), Foxtail, Giant (foxtail, giant): 95
Ragweed plant response rating (ragweed; [7]): 10
Ragweed plant response rating (ragweed; [8]): 40
Plant response rating, Ragweed (ragweed; [9]): 40
Plant response rating (scale of 0 to 100), Ragweed (ragweed): 85
Plant response rating, Barnyardgrass (barnyardgrass; [10]): 80
Plant response rating, Barnyardgrass (barnyardgrass; [3]): 70
Barnyardgrass plant response rating (0 to 100 scale, 0 is no effect, 100 is complete control) (barnyardgrass; Postemergence, 500 g ai/ha): 90
Plant response rating, Barnyardgrass (barnyardgrass; [6]): 90

O=C1NCC(c2cccc(C(F)(F)F)c2)C1C(=O)Nc1cccc(F)c1F (stereo not shown) [Compound 241]
Plant response rating, Corn (corn [1]; [3]): 50
Plant response rating, Corn (corn [1]; [4]): 80
Plant response rating, Corn (corn [1]; [5]): 20
Plant response rating, Corn (corn [1]; [6]): 50
Soybean plant response rating (soybean; [7]): 0
Soybean plant response rating (soybean; [8]): 0
Plant response rating, Soybean (soybean; [9]): 0
Plant response rating (scale of 0 to 100), Soybean (soybean): 0
Ryegrass, Italian plant response rating (ryegrass, Italian; [7]): 20
Ryegrass, Italian plant response rating (ryegrass, Italian; [8]): 20
Plant response rating, Ryegrass, Italian (ryegrass, Italian; [9]): 30
Plant response rating (scale of 0 to 100), Ryegrass, Italian (ryegrass, Italian): 55
Galium plant response rating (galium; [7]): 20
Galium plant response rating (galium; [8]): 80
Plant response rating, Galium (galium; [9]): 85
Plant response rating (scale of 0 to 100), Galium (galium): 85
Plant response rating, Sedge, Umbrella (sedge, umbrella; 250 g ai/ha): 0
Plant response rating, Sedge, Umbrella (sedge, umbrella; 1000 g ai/ha): 20
Plant response rating, Pigweed (pigweed; [3]): 0
Plant response rating, Pigweed (pigweed; [4]): 20
Plant response rating, Pigweed (pigweed; [5]): 0
Plant response rating, Pigweed (pigweed; [6]): 30
Corn plant response rating (corn [2]; [7]): 85
Corn plant response rating (corn [2]; [8]): 65
Plant response rating, Corn (corn [2]; [9]): 80
Plant response rating (scale of 0 to 100), Corn (corn [2]): 90
Foxtail, Giant plant response rating (foxtail, giant; [7]): 90
Foxtail, Giant plant response rating (foxtail, giant; [8]): 95
Plant response rating, Foxtail, Giant (foxtail, giant; [9]): 95
Plant response rating (scale of 0 to 100), Foxtail, Giant (foxtail, giant): 95
Ragweed plant response rating (ragweed; [7]): 0
Ragweed plant response rating (ragweed; [8]): 25
Plant response rating, Ragweed (ragweed; [9]): 30
Plant response rating (scale of 0 to 100), Ragweed (ragweed): 70
Plant response rating, Barnyardgrass (barnyardgrass; [3]): 80
Plant response rating, Barnyardgrass (barnyardgrass; [4]): 90
Plant response rating, Barnyardgrass (barnyardgrass; [5]): 80
Plant response rating, Barnyardgrass (barnyardgrass; [6]): 90

O=C(Nc1ccccc1F)C1C(=S)NCC1c1cccc(C(F)(F)F)c1 (stereo not shown) [Compound 274]
Plant response rating, Corn (corn [1]; [11]): 70
Soybean plant response rating (soybean; [7]): 0
Soybean plant response rating (soybean; [8]): 0
Plant response rating, Soybean (soybean; [9]): 5
Plant response rating (scale of 0 to 100), Soybean (soybean): 0
Ryegrass, Italian plant response rating (ryegrass, Italian; [7]): 0
Ryegrass, Italian plant response rating (ryegrass, Italian; [8]): 0
Plant response rating, Ryegrass, Italian (ryegrass, Italian; [9]): 5
Plant response rating (scale of 0 to 100), Ryegrass, Italian (ryegrass, Italian): 30
Galium plant response rating (galium; [7]): 0
Galium plant response rating (galium; [8]): 0
Plant response rating, Galium (galium; [9]): 80
Plant response rating, Sedge, Umbrella (sedge, umbrella; 500 g ai/ha): 0
Plant response rating, Pigweed (pigweed; Postemergence, 125 g ai/ha, visual rating on 0 to 100 scale (0 no effect, 100 complete control), approx. 10 days): 0
Plant response rating, Pigweed (pigweed; [11]): 20
Plant response rating, Pigweed (pigweed; preemergence, 1000 g ai/ha, 0 to 100 scale): 0
Corn plant response rating (corn [2]; [7]): 0
Corn plant response rating (corn [2]; [8]): 5
Plant response rating, Corn (corn [2]; [9]): 10
Plant response rating (scale of 0 to 100), Corn (corn [2]): 45
Foxtail, Giant plant response rating (foxtail, giant; [7]): 80
Foxtail, Giant plant response rating (foxtail, giant; [8]): 85
Plant response rating, Foxtail, Giant (foxtail, giant; [9]): 90
Plant response rating (scale of 0 to 100), Foxtail, Giant (foxtail, giant): 95
Ragweed plant response rating (ragweed; [8]): 0
Plant response rating, Ragweed (ragweed; [9]): 0
Plant response rating (scale of 0 to 100), Ragweed (ragweed): 0
Plant response rating, Barnyardgrass (barnyardgrass; [11]): 90
Plant response rating, Barnyardgrass (barnyardgrass; preemergence, 1000 g ai/ha, 0 to 100 scale (0 no effect, 100 complete control)): 90
